Laboratory results as given in patent US7947741B2, “Use and administration of bacterial efflux pump inhibitors” (Mpex Pharmaceuticals, Inc., priority 2004, dated 2011).
Like-named read-outs stand apart in the source and are kept apart here.

Columns and labels:
[1] = test system: 108 recent clinical isolates of P. aeruginosa obtained from cystic fibrosis patients; test: Susceptibility of cystic fibrosis clinical isolates (broth-micro-dilution, NCCLS); type: cell-based, Pseudomonas aeruginosa; conditions: 108 CF isolates; pentamidine 20 μg/ml
[2] = test system: outer membrane of P. aeruginosa strain PAM2005; test: microbe, parasite or virus in culture; conditions: Pseudomonas aeruginosa, read-out: IC50, permeabilization of the outer membrane
[3] = test system: PAM1723 cells; test: EtBr uptake (proton gradient disruption); type: cell-based, Pseudomonas aeruginosa; conditions: CCCP 50 μg/ml for 15 minutes, pentamidine 80 μg/ml
Description: A proton gradient is necessary for efflux pump activity. Accordingly, compounds that are capable of proton gradient disruption will appear as efflux inhibitors in accumulation assays. This possibility was tested for pentamidine. EtBr is a substrate of the MexAB-OprM efflux pump from P. aeruginosa as evident from the differential rates of its uptake in PAM 1723 and PAM 1626, MexAB-OprM overexpressing or lacking strains, respectively. CCCP is a well-known protonophore, which rapidly dissipates the proton gradient.

[4] = target: MexAB-OprM-mediated efflux of Leu-Nap, PAM1723 cells (Pseudomonas aeruginosa, UniProt P52002); test: Leu-Nap accumulation assay; type: cell-based
Chain of MexAB-OprM-mediated efflux of Leu-Nap, PAM1723 cells (Q51487 18-485): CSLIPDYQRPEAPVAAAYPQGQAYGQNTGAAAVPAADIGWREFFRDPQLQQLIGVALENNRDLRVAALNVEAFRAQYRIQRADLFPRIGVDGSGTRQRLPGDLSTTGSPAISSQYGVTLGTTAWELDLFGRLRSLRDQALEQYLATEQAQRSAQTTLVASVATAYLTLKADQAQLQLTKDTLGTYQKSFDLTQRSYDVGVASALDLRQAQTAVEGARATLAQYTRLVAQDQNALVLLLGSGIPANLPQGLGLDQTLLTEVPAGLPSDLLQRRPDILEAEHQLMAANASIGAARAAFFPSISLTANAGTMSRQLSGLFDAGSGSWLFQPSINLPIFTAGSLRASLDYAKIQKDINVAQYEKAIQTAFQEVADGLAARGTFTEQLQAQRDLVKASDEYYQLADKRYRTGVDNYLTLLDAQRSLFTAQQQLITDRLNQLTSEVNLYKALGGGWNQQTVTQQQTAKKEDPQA
Chain of MexAB-OprM-mediated efflux of Leu-Nap, PAM1723 cells (P52002 whole entry): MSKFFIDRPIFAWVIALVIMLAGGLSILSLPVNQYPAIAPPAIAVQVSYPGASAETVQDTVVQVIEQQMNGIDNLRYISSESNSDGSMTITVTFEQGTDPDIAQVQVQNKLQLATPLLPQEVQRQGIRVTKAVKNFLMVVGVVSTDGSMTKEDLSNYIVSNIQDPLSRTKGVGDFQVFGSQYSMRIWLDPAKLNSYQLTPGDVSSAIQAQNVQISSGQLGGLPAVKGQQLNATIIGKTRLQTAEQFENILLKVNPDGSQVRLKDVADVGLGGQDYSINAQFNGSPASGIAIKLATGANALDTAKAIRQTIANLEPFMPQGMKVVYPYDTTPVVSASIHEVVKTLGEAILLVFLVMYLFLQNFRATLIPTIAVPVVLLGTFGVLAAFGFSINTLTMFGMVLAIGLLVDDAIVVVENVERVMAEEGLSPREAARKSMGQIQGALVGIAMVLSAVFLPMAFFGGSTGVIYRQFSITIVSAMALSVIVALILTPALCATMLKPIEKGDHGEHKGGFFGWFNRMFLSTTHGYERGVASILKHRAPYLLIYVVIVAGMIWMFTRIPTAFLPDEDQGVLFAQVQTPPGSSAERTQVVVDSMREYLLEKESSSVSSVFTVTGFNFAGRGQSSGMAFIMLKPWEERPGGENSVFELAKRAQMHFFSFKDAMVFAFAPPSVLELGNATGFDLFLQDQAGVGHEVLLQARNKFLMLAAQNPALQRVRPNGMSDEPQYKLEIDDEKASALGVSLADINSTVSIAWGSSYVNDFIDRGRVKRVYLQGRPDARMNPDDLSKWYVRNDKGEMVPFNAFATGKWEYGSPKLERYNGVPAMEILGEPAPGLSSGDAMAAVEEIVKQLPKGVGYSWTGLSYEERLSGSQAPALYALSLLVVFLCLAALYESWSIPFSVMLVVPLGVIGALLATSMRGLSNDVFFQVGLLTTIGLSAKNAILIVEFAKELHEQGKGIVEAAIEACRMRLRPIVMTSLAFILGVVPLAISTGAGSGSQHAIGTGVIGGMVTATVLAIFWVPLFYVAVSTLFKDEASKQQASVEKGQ
Chain of MexAB-OprM-mediated efflux of Leu-Nap, PAM1723 cells (P52477 24-383, further chain): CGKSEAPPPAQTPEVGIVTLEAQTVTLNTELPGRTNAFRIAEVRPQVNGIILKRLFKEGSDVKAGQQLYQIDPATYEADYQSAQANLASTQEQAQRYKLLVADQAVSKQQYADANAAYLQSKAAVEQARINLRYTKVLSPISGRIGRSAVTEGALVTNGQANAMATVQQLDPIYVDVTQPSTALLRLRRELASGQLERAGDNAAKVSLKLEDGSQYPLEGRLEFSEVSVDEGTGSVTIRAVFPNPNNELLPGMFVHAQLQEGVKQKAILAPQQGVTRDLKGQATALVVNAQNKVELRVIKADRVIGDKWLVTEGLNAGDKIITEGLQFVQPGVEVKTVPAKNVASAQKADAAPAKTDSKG

[5] = test system: P. aeruginosa PAM1738 (nfxB, overexpressing MexCD-OprJ); test: microbe, parasite or virus in culture; type: cell-based, Pseudomonas aeruginosa
Description: (§1) Stock solutions were further diluted, according to the needs of a particular assay, in Mueller Hinton Broth (MHB). Stock solution was stored at −80° C.
(§2) The checkerboard assay was performed in microtiter plates. […] The result of these manipulations is that each well of the microtiter plate contains a unique combination of concentrations of the two agents. The assay was performed in MHB with a final bacterial inoculum of 5×10^5 CFU/ml (from an early-log phase culture). Microtiter plates were incubated during 20 h at 35° C. and were read using a microtiterplate reader (Molecular Devices) at 650 nm as well as visual observation using a microtiter plate reading mirror.
(§3) The test organisms used was PAM1020, which is a wild type strain of P. aeruginosa expressing the basal level of MexAB-OprM, as well as PAM1723, PAM1738, and PAM1753, overexpressing the MexAB-OprM, MexCD-OprJ, and MexEF-OprN pump, respectively.

[6] = test system: P. aeruginosa PAM1753 (nfxC, overexpressing MexEF-OprN); test: Levofloxacin potentiation checkerboard assay (broth microdilution); type: cell-based, Pseudomonas aeruginosa; conditions: for Levofloxacin MIC in the presence of inhibitor: PAM1753
Description: as §1, §2, §3

[7] = test system: P. aeruginosa PAM1020 (wt, basal level of MexAB-OprM); test: as above; type: cell-based, Pseudomonas aeruginosa
Description: as §1, §2, §3

[8] = for AUC (0-4)/AUC (0-168) / AUC (0-8)/AUC (0-168) / AUC (0-24)/AUC (0-168) / Ke (β): CF sputum, high dose, Mean; for Ke (β): β phase
[9] = clinical; conditions: human, in vivo
[10] = Pseudomonas aeruginosa, read-out: MIC* (MIC for the efflux pump inhibitor)

N=C(N)c1ccc(OCCCCCOc2ccc(C(=N)N)cc2)cc1 [Pentamidine, pentamidine]
decrease of MIC50 of levofloxacin and ciprofloxacin [1]: 8 fold | decrease of MIC90 of levofloxacin and ciprofloxacin [1]: 2 fold | IC50 [2]: > 64 µg/mL | EtBr uptake [3]: did not result in increased EtBr uptake | inhibitor concentration at which rate of Leu-Nap uptake in PAM1723 and PAM1626 is the same (complete inhibition of efflux) ([4]; Leu-Nap 100 μg/ml): 40 µg/mL | mode of inhibition ([4]; dependence on Leu-Nap substrate concentration): uncompetitive inhibition | pentamidine required for complete inhibition of the pump ([4]; external Leu-Nap 60 μg/ml, fluorescence change in 30 min): 80 µg/mL | pentamidine required to completely inhibit MexAB-OprM-mediated efflux ([4]; external Leu-Nap 120 μg/ml, fluorescence change in 30 min): 20 µg/mL | Levofloxacin MIC in the presence of inhibitor ([5]; PAM1738, inhibitor 1.25 μg/ml): 0.5 µg/mL | Levofloxacin MIC in the presence of inhibitor ([5]; PAM1738, inhibitor 2.5 μg/ml): 0.25 µg/mL | Levofloxacin MIC in the presence of inhibitor ([5]; PAM1738, inhibitor 5 μg/ml): 0.25 µg/mL | Levofloxacin MIC in the presence of inhibitor ([5]; PAM1738, inhibitor 10 μg/ml): 0.25 µg/mL | Levofloxacin MIC in the presence of inhibitor ([5]; PAM1738, inhibitor 20 μg/ml): 0.125 µg/mL | Levofloxacin MIC in the presence of inhibitor ([5]; PAM1738, inhibitor 40 μg/ml): 0.03 µg/mL | Levofloxacin MIC in the presence of inhibitor ([5]; PAM1738, inhibitor 80 μg/ml): 0.015 µg/mL | decrease of levofloxacin MIC ([5]; PAM1738, pentamidine at 20 μg/ml): 4 fold | MIC [5, 10]: > 80 µg/mL | Levofloxacin MIC in the presence of inhibitor ([6]; inhibitor 1.25 μg/ml): 2 µg/mL | Levofloxacin MIC in the presence of inhibitor ([6]; inhibitor 2.5 μg/ml): 2 µg/mL | Levofloxacin MIC in the presence of inhibitor ([6]; inhibitor 5 μg/ml): 2 µg/mL | Levofloxacin MIC in the presence of inhibitor ([6]; inhibitor 10 μg/ml): 1 µg/mL | Levofloxacin MIC in the presence of inhibitor ([6]; inhibitor 20 μg/ml): 0.25 µg/mL | MIC [6, 10]: 40 µg/mL | decrease of levofloxacin MIC ([7]; PAM1020 (wild type), pentamidine at 20 μg/ml): 8 fold | Levofloxacin MIC in the presence of inhibitor ([7]; PAM1020, inhibitor 1.25 μg/ml): 0.25 µg/mL | Levofloxacin MIC in the presence of inhibitor ([7]; PAM1020, inhibitor 2.5 μg/ml): 0.25 µg/mL | Levofloxacin MIC in the presence of inhibitor ([7]; PAM1020, inhibitor 5 μg/ml): 0.125 µg/mL | Levofloxacin MIC in the presence of inhibitor ([7]; PAM1020, inhibitor 10 μg/ml): 0.06 µg/mL | Levofloxacin MIC in the presence of inhibitor ([7]; PAM1020, inhibitor 20 μg/ml): 0.03 µg/mL | Levofloxacin MIC in the presence of inhibitor ([7]; PAM1020, inhibitor 40 μg/ml): 0.015 µg/mL | MIC ([7]; Pseudomonas aeruginosa, PAM1020, inhibitor alone, read-out: MIC* (MIC for the efflux pump inhibitor)): 80 µg/mL | AUC (0-4)/AUC (0-168) ([8]; Aerogen Clinical): 46% | AUC (0-8)/AUC (0-168) ([8]; Aerogen Clinical): 61% | AUC (0-24)/AUC (0-168) ([8]; Aerogen Clinical): 77% | Ke (β) ([8]; Aerogen Clinical): 0.070 h⁻¹ | AUC (0-4)/AUC (0-168) ([8]; Respirgard II): 30% | AUC (0-8)/AUC (0-168) ([8]; Respirgard II): 41% | AUC (0-24)/AUC (0-168) ([8]; Respirgard II): 66% | Ke (β) ([8]; Respirgard II): 0.074 h⁻¹ | AUC (0 to 168) ([8]; human, in vivo): 57000 ng·h/mL | AUC (0 to infinity) ([8]; human, in vivo): 57000 ng·h/mL | AUC (0 to last non-BLQ) ([8]; human, in vivo): 56000 ng·h/mL | Tmax (0 to 168) ([8]; human, in vivo): 2.3 h | high-dose β-phase elimination half-life (sputum) ([8]; human, in vivo): between one and two days | concentration at 7 day [9]: ≤ 110 ng/mL | half-life ([9]; 70 mg/4 ml, T1/2 (a), CF sputum, Aerogen Clinical, high dose, a phase 0-8 hours, Mean): 2.2 h | half-life ([9]; 70 mg/4 ml, T1/2 (β), CF sputum, Aerogen Clinical, high dose, β phase, Mean): 24.4 h | half-life ([9]; 300 mg/6 ml, T1/2 (a), CF sputum, Respirgard II, high dose, a phase 0-8 hours, Mean): 2.6 h | half-life ([9]; 300 mg/6 ml, T1/2 (β), CF sputum, Respirgard II, high dose, β phase, Mean): 26.7 h | AUC(0-t) ([9]; AUC (0 to 168)): 84000 ng·h/mL | AUC(0-inf) ([9]; AUC (0 to infinity)): 84000 ng·h/mL | AUC(0-t) ([9]; AUC (0 to last non-BLQ)): 83000 ng·h/mL | Tmax ([9]; Tmax (0 to 168)): 1.8 h | half-life ([9]; α phase half-life for elimination from sputum): 2.2 to 2.6 h
